In patent US10611750B2, “Tetrahydroquinoline compositions as bet bromodomain inhibitors” (FORMA Therapeutics, Inc., priority 2013, dated 2020):
Where two headings read alike, the source gives them in different places.

Key:
[1] = system: acute myelocytic leukemia (AML) cell line MV4-11; assay: Oncology cell growth assay (3-day proliferation, CellTiter-Glo); type: cell-based; settings: Homo sapiens, MV4-11 cells, 3000 cells/well, compounds listed under IC50 range headings, read-out: MV411 IC50 (gIC50, inhibition of proliferation)
Summary of the method: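 A 3-day proliferation test used MV4-11 cells seeded at 3000 per well with eight compound concentrations (10 μM top, 3-fold dilution) at 37° C in 5% CO2. CellTiter-Glo luminescence defined viable cell signal. A four-parameter logistic curve against DMSO and background wells gave the gIC50.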

[2] = molecular target: T1, BRD4 Bromodomain 2 (BRD4 BD2) (Homo sapiens, UniProt O60885); assay: AlphaScreen binding assay, BRD4 BD2; settings: His-tagged BRD4 BD2 100 nM, biotinylated H4 (1-21) K5/8/12/16 tetra-acetylated peptide 100 nM, compounds listed under IC50 range headings
T1 construct: 333-460 were cloned, expressed, and purified to homogeneity
Summary of the method: (§1)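 Compound dilution series were mixed with His-tagged BRD4 bromodomain and biotinylated tetra-acetylated H4 (1-21) peptide at pH 7.3 (BD1 and peptide at 50 nM, BD2 and peptide at 100 nM). Donor and acceptor beads were then added, and plates were equilibrated at least 1 h before reading. IC50 values were fitted with a four-parameter logistic model.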

[3] = molecular target: T2, BRD4 Bromodomain 1 (BRD4 BD1) (Homo sapiens, UniProt O60885); assay: AlphaScreen binding assay, BRD4 BD1; settings: His-tagged BRD4 BD1 50 nM, biotinylated H4 (1-21) K5/8/12/16 tetra-acetylated peptide 50 nM, compounds listed under IC50 range headings
T2 construct: 44-168 and BRD4 BD2
Summary of the method: as §1

SMILES | IC50 ([1]; 72 hours) | IC50 [2] | IC50 [3] | IC50 ([1]; MV4-11, 72 h)
CCCOc1c(C2CCN(C(=O)OC)CC2)ccc2c1CC[C@H](C)N2C(C)=O [I-357, methyl (S)-4-(1-acetyl-2-methyl-5-propoxy-1,2,3,4-tetrahydroquinolin-6-yl)piperidine-1-carboxylate] | > 1000 nM | ≥ 500 nM | ≥ 10000 nM | 
CC(=O)N1c2ccc(-c3cnn(C4CCNCC4)c3)c(Oc3nccc(C(F)(F)F)n3)c2CC[C@@H]1C [I-514] |  | 50 to 500 nM | 1000 to 10000 nM | < 500 nM
